Results as given in patent US12447156B2, “Treating progressive familial intrahepatic cholestasis (PFIC) with IBAT inhibitors” (ALBIREO AB, priority 2020, dated 2025).

Tested on: children with PFIC
Experiment: Pooled analysis of PEDFIC 1 and PEDFIC 2 (up to 48 weeks): efficacy, sleep, responders vs nonresponders
Assay type: in vivo, human
Source text: This example describes key outcomes with odevixibat in children with PFIC1 (familial intrahepatic cholestasis 1 [FIC1] deficiency) or PFIC2 ((bile salt export pump [BSEP] deficiency) based on pooled analysis of data from the phase 3 PEDFIC 1 (P1; NCT03566238) and PEDFIC 2 (P2; NCT03659916) studies. This pooled analysis covers up to 48 weeks of odevixibat treatment from P1 and through the planned P2 interim data cut. The following outcomes are described: change in serum bile acids (sBAs), change in pruritus score (measured using the PRUCISION scale; range: 0-4), evaluation of growth and sleep parameters, and safety monitoring. Mean changes in autotaxin (linked to cholestatic pruritus intensity) and plasma 7α-hydroxy-4-cholesten-3-one (p-C4; marker of bile acid synthesis) levels were also summarized.
Patient sleep was evaluated based on caregiver report using the PRUCISION scale and via the clinician- or caregiver-reported Global Impression of Change (CGIC or CaGIC, respectively) sleep scales. Treatment response was defined as an sBA response (sBAs<65 or <102 μmol/L for patients with PFIC1 and PFIC2, respectively) or a pruritus response (a ≥1-point drop from baseline in pruritus score). Mean decreases in caregiver-reported percentage of days with scratching associated with bleeding, needing help falling asleep, and needing soothing were greater among Rs vs NRs (Table 10). At week 48, clinicians and caregivers reported that ≥88% of Rs had moderately or very much better sleep since starting odevixibat (Table 10).
Using pooled data from these studies, changes in parameters of cholestasis, pruritus, and hepatic laboratory markers in patients who responded to odevixibat treatment (Rs) vs treatment nonresponders (NRs). Two responder definitions were examined: 1) sBA response (i.e., sBAs<65 or <102 μmol/L for PFIC1 and PFIC2, respectively) and 2) sBA response or pruritus response (i.e., a ≥1-point drop from baseline in PRUCISION score).

[1] = patients with liver enzyme data at baseline
[2] = patients with liver enzyme data at week 4
[3] = patients with liver enzyme data at week 24
[4] = patients with liver enzyme data at week 48
[5] = pooled P1+P2, all odevixibat-treated patients
[6] = pooled P1+P2, baseline to weeks 37-48
[7] = sBA or pruritus response No, week 24, n 21
[8] = sBA or pruritus response No, weeks 1-4, n 28
[9] = sBA or pruritus response No, weeks 21-24, n 22
[10] = sBA or pruritus response No, weeks 45-48, n 2
[11] = sBA or pruritus response Yes, weeks 1-4, n 47
[12] = sBA or pruritus response Yes, weeks 21-24, n 34
[13] = sBA or pruritus response Yes, weeks 45-48, n 18
[14] = week 4, sBA or Pruritus Response No
[15] = week 4, sBA or Pruritus Response Yes
[16] = week 24, sBA or Pruritus Response No
[17] = week 24, sBA or Pruritus Response Yes
[18] = week 48, sBA or Pruritus Response No
[19] = week 48, sBA or Pruritus Response Yes

CCCCC1(CCCC)CN(c2ccccc2)c2cc(SC)c(OCC(=O)N[C@@H](C(=O)N[C@@H](CC)C(=O)O)c3ccc(O)cc3)cc2S(=O)(=O)N1 [Odevixibat, 1,1-dioxo-3,3-dibutyl-5-phenyl-7-methylthio-8-(N-{(R)-α-[N-((S)-1-carboxypropyl)carbamoyl]-4-hydroxybenzyl}carbamoylmethoxy)-2,3,4,5-tetrahydro-1,2,5-benzothiadiazepine]
sBA or pruritus responders, n (responder rate [n/(n + m)] * 100) [1]: 48 (63) n (%) | sBA responders, n (responder rate [n/(n + m)] * 100) [1]: 24 (39) n (%) | sBA or pruritus responders, n (responder rate [n/(n + m)] * 100) [2]: 43 (61) n (%) | sBA responders, n (responder rate [n/(n + m)] * 100) [2]: 23 (39) n (%) | sBA or pruritus responders, n (responder rate [n/(n + m)] * 100) [3]: 31 (62) n (%) | sBA responders, n (responder rate [n/(n + m)] * 100) [3]: 19 (40) n (%) | sBA or pruritus responders, n (responder rate [n/(n + m)] * 100) [4]: 18 (75) n (%) | sBA responders, n (responder rate [n/(n + m)] * 100) [4]: 15 (63) n (%) | mean change from baseline to week 48 in alanine aminotransferase (ALT) [5]: −82 U/L | mean change from baseline to week 48 in total bilirubin [5]: -18 µmol/L | mean change in height Z score (pooled P1+P2, baseline to week 48): 0.5 | mean change in observer-reported percentage of days needing help falling asleep [6]: −52% | mean change in observer-reported percentage of days needing soothing [6]: −51% | mean change in observer-reported percentage of days seeing blood due to scratching [6]: −25% | mean change in observer-reported percentage of days sleeping with caregiver [6]: −40% | patients who met sBA response criteria (pooled P1+P2, during the analysis period, regardless of genotype): ≥ 50% | mean change from baseline in sBAs (pooled P1+P2, end of the analysis period (up to 48 weeks), n=24): -213 µmol/L | mean change in pruritus score (pooled P1+P2, end of the analysis period (up to 48 weeks), n=32): −1.4 | mean change in sBAs (pooled P1+P2, four weeks after starting odevixibat, n=68, baseline 250): -88 µmol/L | mean change in pruritus score (pooled P1+P2, over the first 4-week period, n=75, baseline 2.9): −0.7 | mean positive pruritus assessments (PPAs) (pooled P1+P2, patients with PFIC1): 48% | mean positive pruritus assessments (PPAs) (pooled P1+P2, patients with PFIC2 (including BSEP subtypes 1 and 2)): above 60% | mean height Z score (pooled P1+P2, week 48, n=20, baseline −1.9 (n=75)): −0.8 | mean weight Z score (pooled P1+P2, week 48, n=21, baseline −1.1 (n=75)): −0.0 | rate of sBA or pruritus responders (pooled P1+P2, weeks 0-24): 57% | rate of sBA responders (pooled P1+P2, weeks 0-24): 31% | rate of sBA or pruritus responders (pooled P1+P2, weeks 25-36): 60% | rate of sBA responders (pooled P1+P2, weeks 25-36): 48% | rate of sBA or pruritus responders (pooled P1+P2, weeks 37-48): 65% | rate of sBA responders (pooled P1+P2, weeks 37-48): 59% | CGIC sleep, moderately or very much better (sBA or pruritus response No, week 4, n 26): 30.8% | CaGIC sleep, moderately or very much better (sBA or pruritus response No, week 4, n 28): 25.0% | CGIC sleep, moderately or very much better [7]: 33.3% | CaGIC sleep, moderately or very much better [7]: 23.8% | CaGIC sleep, moderately or very much better (sBA or pruritus response No, week 48, n 3): 33.3% | CGIC sleep, moderately or very much better (sBA or pruritus response No, week 48, n 4): 25.0% | % Days needing help falling asleep, mean change from baseline [8]: −10.4% | % Days needing soothing, mean change from baseline [8]: −6.0% | % Days with scratching associated with bleeding, mean change from baseline [8]: −6.5% | % days sleeping with caregiver, mean change from baseline [8]: −3.1% | Number of awakenings, mean change from baseline [8]: 1.3 | % Days needing help falling asleep, mean change from baseline [9]: −4.9% | % Days needing soothing, mean change from baseline [9]: 7.8% | % Days with scratching associated with bleeding, mean change from baseline [9]: 3.2% | % days sleeping with caregiver, mean change from baseline [9]: 3.1% | Number of awakenings, mean change from baseline [9]: 1.5 | % Days needing help falling asleep, mean change from baseline [10]: −1.8% | % Days needing soothing, mean change from baseline [10]: 4.2% | % Days with scratching associated with bleeding, mean change from baseline [10]: 12.5% | % days sleeping with caregiver, mean change from baseline [10]: 0.0% | Number of awakenings, mean change from baseline [10]: −4.3 | CaGIC sleep, moderately or very much better (sBA or pruritus response Yes, week 4, n 39): 48.7% | CGIC sleep, moderately or very much better (sBA or pruritus response Yes, week 4, n 42): 57.1% | CaGIC sleep, moderately or very much better (sBA or pruritus response Yes, week 24, n 27): 70.4% | CGIC sleep, moderately or very much better (sBA or pruritus response Yes, week 24, n 32): 59.4% | CaGIC sleep, moderately or very much better (sBA or pruritus response Yes, week 48, n 15): 93.3% | CGIC sleep, moderately or very much better (sBA or pruritus response Yes, week 48, n 18): 88.9% | % Days needing help falling asleep, mean change from baseline [11]: −23.1% | % Days needing soothing, mean change from baseline [11]: −22.5% | % Days with scratching associated with bleeding, mean change from baseline [11]: −16.8% | % days sleeping with caregiver, mean change from baseline [11]: −23.1% | Number of awakenings, mean change from baseline [11]: -−3.1 | % Days needing help falling asleep, mean change from baseline [12]: −56.1% | % Days needing soothing, mean change from baseline [12]: −58.8% | % Days with scratching associated with bleeding, mean change from baseline [12]: −30.9% | % days sleeping with caregiver, mean change from baseline [12]: −48.5% | Number of awakenings, mean change from baseline [12]: -−1.9 | % Days needing help falling asleep, mean change from baseline [13]: −73.0% | % Days needing soothing, mean change from baseline [13]: −74.6% | % Days with scratching associated with bleeding, mean change from baseline [13]: −41.5% | % days sleeping with caregiver, mean change from baseline [13]: −69.1% | Number of awakenings, mean change from baseline [13]: −11.0 | ALT, change from baseline, Mean (SE) (week 4, sBA Response No): 21 (16) U/L | Total bilirubin, change from baseline, Mean (SE) (week 4, sBA Response No): −10 (9) μmol/L | ALT, change from baseline, Mean (SE) (week 4, sBA Response Yes): −28 (37) U/L | Total bilirubin, change from baseline, Mean (SE) (week 4, sBA Response Yes): −8 (4) μmol/L | ALT, change from baseline, Mean (SE) [14]: 9 (4) U/L | Total bilirubin, change from baseline, Mean (SE) [14]: −14 (11) μmol/L | ALT, change from baseline, Mean (SE) [15]: −2 (24) U/L | Total bilirubin, change from baseline, Mean (SE) [15]: −6 (4) μmol/L | ALT, change from baseline, Mean (SE) (week 24, sBA Response No): −10 (11) U/L | Total bilirubin, change from baseline, Mean (SE) (week 24, sBA Response No): −19 (10) μmol/L | ALT, change from baseline, Mean (SE) (week 24, sBA Response Yes): −67 (42) U/L | Total bilirubin, change from baseline, Mean (SE) (week 24, sBA Response Yes): −23 (8) μmol/L | ALT, change from baseline, Mean (SE) [16]: 5 (8) U/L | Total bilirubin, change from baseline, Mean (SE) [16]: −23 (13) μmol/L | ALT, change from baseline, Mean (SE) [17]: −56 (27) U/L | Total bilirubin, change from baseline, Mean (SE) [17]: −19 (7) μmol/L | ALT, change from baseline, Mean (SE) (week 48, sBA Response No): −32 (22) U/L | Total bilirubin, change from baseline, Mean (SE) (week 48, sBA Response No): −6 (14) μmol/L | ALT, change from baseline, Mean (SE) (week 48, sBA Response Yes): −112 (57) U/L | Total bilirubin, change from baseline, Mean (SE) (week 48, sBA Response Yes): −25 (11) μmol/L | ALT, change from baseline, Mean (SE) [18]: −5 (15) U/L | Total bilirubin, change from baseline, Mean (SE) [18]: 1 (20) μmol/L | ALT, change from baseline, Mean (SE) [19]: −108 (48) U/L | Total bilirubin, change from baseline, Mean (SE) [19]: −25 (9) μmol/L | responders with moderately or very much better sleep since starting odevixibat (clinician and caregiver reported) (week 48, patients with sBA response or pruritus response): ≥ 88%
